The text below walks through data of US10118902B2 (Sanford Burnham Prebys Medical Discovery Institute, priority 2014, dated 2018).

The assay addresses neurotensin receptor 1 (NTR1) (Homo sapiens (Human), UniProt P30989). Kind of assay: NTR1 dose response, high-content imaging beta-arrestin-GFP assay in NTR1-U2OS cells. The note with it: read-out: EC50. The class given is cell-based. From the text: The cell lines utilized in the high-content imaging assays, which include the NTR1-, NTR2-, and GPR35-U2OS osteosarcomas, were obtained from the laboratory of Dr. Lawrence Barak at the Duke University Medical Center. The media used in the culture of the cell lines, as well as the assays themselves, consisted of Minimum Essential Medium (15-010-CM) and L-glutamine (25-005-CL) from Cellgro/Mediatech (Manassas, Va.), fetal bovine serum (SH30396.03) from Hyclone (Logan, Utah), penicillin-streptomycin solution (PS-20) from Omega Scientific in Tarzana, Calif., G418 (ant-gn-1) from Invivogen (San Diego, Calif.), and zeocin (R250-01) from Invitrogen (Carlsbad, Calif.). Cell lines were cultured in T225 tissue culture flasks (431082) supplied by Corning (Corning, N.Y.). Additional reagents employed include Dulbecco's Phosphate-Buffered Saline (DPBS) (21-031CV) from Cellgro/Mediatech, Trypsin-EDTA 0.05% (25300) from Invitrogen, paraformaldehyde (30528954) from Acros Organics (Geel, Belgium), Hoechst 33342 (H3570) from Invitrogen. The high-content assays were run in 1536-well plates (29326) supplied by Aurora Biotechnology (Poway, Calif.) and utilized aluminum plate seals (T592100) from E&K Scientific (Santa Clara, Calif.). […]
The high-content imaging based NTR1 primary screen in 1536-well format was utilized to assay the MLSMR library of chemical entities in the following manner. On day one, 4 uL of a cell suspension containing 350,000 NTR1-U2OS cells per mL is added to each well of a 1536-well assay plate. Cells are plated in MEM medium containing 2.5% Fetal Bovine Serum, 1% Penicillin/Streptomycin solution, 1% L-Glutamine, 400 ug/mL G418, and 200 ug/mL Zeocin. The assay plates are then incubated overnight at 37° C., under 5% CO2. Following the overnight incubation, a volume of 60 nL of the compounds at 2 mM in DMSO (final 20 μM, 1% DMSO) was transferred to columns 5-48 of the assay plates using a LabCyte Echo Liquid Handler. Next, 60 nL of DMSO were dispensed to columns 1-4, which served as the positive and neutral control wells. […] The assay plates were centrifuged on an Eppendorf 5810 centrifuge at 1000 rpm for 1 min to ensure even liquid levels in the wells of the assay plates. The assay plates were then returned to the incubator for 1 hour. Following the hour-long incubation at 37° C., the cells in each well were fixed with 4 uL of 6% paraformaldehyde added with a Multidrop Combi. The assay plates were centrifuged as before and incubated at room temperature for 1 hour. On the Kalypsys, plates were then aspirated down to 2.5 uL per well and washed twice with 11 uL per well of DPBS, followed by a final aspiration to 2.5 uL per well. On the Combi dispenser, 5 uL of 5 ug/mL Hoechst 33342 diluted in DPBS was added to each well of assay plates. The plates were again centrifuged as previously described, sealed, and incubated for at least 1 hour prior to being loaded on a PerkinElmer Opera QEHS.
Image acquisition was performed with a 45 plate capacity loader/stacker and the following settings: 40×0.6 NA air objective, acquisition camera set to 2-by-2 binning for an image size of 688 by 512 pixels, beta-arrestin-GFP acquired using 488 nm laser excitation and 540/75 nm emission filters, DAPI (nuclei) using 365 nm Xenon lamp excitation and 450/50 nm emission filters, 3 fields per well. Image analysis was performed using the Acapella Spot Detection Algorithm. For analysis settings and the metrics employed in the data analyses, please refer to supplemental information.
Compounds that were successfully confirmed in quadruplicate at 20 uM were then run in dose response in the primary assay. As with the single concentration hit confirmation, the assay was performed in an identical manner as the primary screen with the following modifications. […]

Sequence of neurotensin receptor 1 (NTR1) (P30989 whole entry, species assumed): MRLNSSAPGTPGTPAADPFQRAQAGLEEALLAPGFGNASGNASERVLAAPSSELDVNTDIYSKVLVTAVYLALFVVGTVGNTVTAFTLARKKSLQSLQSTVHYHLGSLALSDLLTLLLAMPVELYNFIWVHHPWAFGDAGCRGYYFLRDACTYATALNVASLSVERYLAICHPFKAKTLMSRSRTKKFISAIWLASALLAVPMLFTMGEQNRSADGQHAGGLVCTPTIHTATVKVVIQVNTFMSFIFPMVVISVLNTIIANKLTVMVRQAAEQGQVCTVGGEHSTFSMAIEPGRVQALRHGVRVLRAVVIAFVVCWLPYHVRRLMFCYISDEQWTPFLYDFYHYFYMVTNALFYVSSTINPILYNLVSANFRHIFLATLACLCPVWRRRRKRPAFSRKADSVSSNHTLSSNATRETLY

As to `COc1ccccc1N1CC2(C1)CN(c1nc(C3CC3)nc3ccc(N(C)CCN4CCOCC4)cc13)C2` [Example 101, {2-cyclopropyl-4-[6-(2-methoxy-phenyl)-2,6-diaza-spiro [3.3]hept-2-yl]-quinazolin-6-yl}-methyl-(2-morpholin-4-yl-ethyl)-amine], the 50% effective concentration (EC50) (in general, the concentration that produces a half-maximal response) was more than 10 µM.
On to `COc1ccccc1C1CCN(c2nc(C3CC3)nc3c(N(C)CCN4CCOCC4)cccc23)CC1` [Example 129, {2-cyclopropyl-4-[4-(2-methoxy-phenyl)-piperidin-1-yl]-quinazolin-8-yl}-methyl-(2-morpholin-4-yl-ethyl)-amine], for which the concentration giving a half-maximal response (EC50) was more than 10 µM.
As for `COc1ccccc1N1CC2(C1)CN(c1nc(C3CC3)nc3ccc(N(C)CCO)cc13)C2` [Example 99, 2-({2-cyclopropyl-4-[6-(2-methoxy-phenyl)-2,6-diaza-spiro [3.3]hept-2-yl]-quinazolin-6-yl}-methyl-amino)-ethanol], the figure is 2 to 10 µM.
As for `COCCN(C)c1ccc2nc(C3CC3)nc(N3CCC(c4ccccc4N(C)C)CC3)c2c1` [Example 11, {2-cyclopropyl-4-[4-(2-dimethylamino-phenyl)-piperidin-1-yl]-quinazolin-6-yl}-(2-methoxy-ethyl)-methyl-amine], the figure is 2 to 10 µM.
The same measure for `CN(C)c1ccccc1C1CCN(c2nc(C3(F)CCC3)nc3ccc(N(C)CCN4CCOCC4)cc23)CC1` [Example 62, [4-[4-(2-dimethylamino-phenyl)-piperidin-1-yl]-2-(1-fluoro-cyclobutyl)-quinazolin-6-yl]-methyl-(2-morpholin-4-yl-ethyl)-amine]: 0.5 to 2 µM; for `COc1ccccc1C1CCN(c2nc(C3CC3)nc3ccc(N4CC[C@@H](OC)C4)cc23)CC1` [Example 176, (R)-2-cyclopropyl-4-[4-(2-methoxy-phenyl)-piperidin-1-yl]-6-(3-methoxy-pyrrolidin-1-yl)-quinazoline]: 0.5 to 2 µM; for `COC1CCCC1N1CCN(c2nc(C3CC3)nc3ccc(N(C)CCO)cc23)CC1` (stereo not drawn) [Example 184, 2-({2-Cyclopropyl-4-[4-(2-methoxy-cyclopentyl)-piperazin-1-yl]-quinazolin-6-yl}-methyl-amino)-ethanol]: more than 10 µM.
As for `COc1ccccc1C1CCN(c2nc(C3(F)CC3)nc3c(Cl)cc(N4CC[C@H](O)C4)cc23)CC1` (stereo in doubt) [Example 203, 1-{8-Chloro-2-(1-fluoro-cyclopropyl)-4-[4-(2-methoxy-phenyl)-piperidin-1-yl]-quinazolin-6-yl}-pyrrolidin-3-ol], the EC50 was in the range of 2 to 10 µM.
The same measure for `COc1ccccc1C1CCN(c2nc(C3(C)CC3)nc3ccc(N(C)CCN(C)C)cc23)CC1` [Example 23, N-[4-[4-(2-methoxy-phenyl)-piperidin-1-yl]-2-(1-methyl-cyclopropyl)-quinazolin-6-yl]-N,N′,N′-trimethyl-ethane-1,2-diamine]: more than 10 µM; for `COc1cc(F)ccc1C1CCN(c2nc(C3CC3)nc3cc(C)c(N(C)CCO)cc23)CC1` [Example 114, 2-({2-cyclopropyl-4-[4-(4-fluoro-2-methoxy-phenyl)-piperidin-1-yl]-7-methyl-quinazolin-6-yl}-methyl-amino)-ethanol]: 2 to 10 µM; for `COc1ccccc1C1CCN(c2nc(C3(C(F)(F)F)CCC3)nc3ccc(N(C)CCO)cc23)CC1` [Example 63, 2-{[4-[4-(2-methoxy-phenyl)-piperidin-1-yl]-2-(1-trifluoromethyl-cyclobutyl)-quinazolin-6-yl]-methyl-amino}-ethanol]: 0.5 to 2 µM.
As for `COc1ccccc1C1CCN(c2nc(C3CCC3)nc3ccc(N(C)CCO)cc23)CC1` [Example 43, 2-({2-cyclobutyl-4-[4-(2-methoxy-phenyl)-piperidin-1-yl]-quinazolin-6-yl}-methyl-amino)-ethanol], the figure is 0.5 to 2 µM; as for `COc1ccccc1C1CCN(c2nc(C3CCCC3)nc3ccc(N(C)CCN4CCOCC4)cc23)CC1` [Example 41], more than 10 µM; as for `COc1ccccc1C1CCN(c2nc(C3CC3)nc3cc(Cl)c(N(C)CCO)cc23)CC1` [Example 107, 2-({7-chloro-2-cyclopropyl-4-[4-(2-methoxy-phenyl)-piperidin-1-yl]-quinazolin-6-yl}-methyl-amino)-ethanol], 0.5 to 2 µM.
The same measure for `COc1ccccc1C1CCN(c2nc(C3(F)CC3)nc3cnc(N4CC[C@@H](O)C4)cc23)CC1` [Example 197, 1-{2-(1-Fluoro-cyclopropyl)-4-[4-(2-methoxy-phenyl)-piperidin-1-yl]-pyrido[3,4-d]pyrimidin-6-yl}-pyrrolidin-3-ol]: 0.5 to 2 µM; for `COc1cnccc1C1CCN(c2nc(C3(F)CC3)nc3ccc(N(C)CCO)cc23)CC1` [Example 212, 2-{[2-(1-Fluoro-cyclopropyl)-4-(3′-methoxy-3,4,5,6-tetrahydro-2H-[4,4′]bipyridinyl-1-yl)-quinazolin-6-yl]-methyl-amino}-ethanol]: more than 10 µM; for `CCCN(C)C(=O)Cc1c(C)nc(C2CC2)nc1N1CCC(c2ccccc2OC)CC1` [Example 158, 2-{2-cyclopropyl-4-[4-(2-methoxy-phenyl)-piperidin-1-yl]-6-methyl-pyrimidin-5-yl}-N-methyl-N-propyl-acetamide]: more than 10 µM.
Consider `CN(C)c1ccccc1C1CCN(c2nc(C3(C)CCC3)nc3ccc(N(C)CCN4CCOCC4)cc23)CC1` [Example 67, [4-[4-(2-dimethylamino-phenyl)-piperidin-1-yl]-2-(1-methyl-cyclobutyl)-quinazolin-6-yl]-methyl-(2-morpholin-4-yl-ethyl)-amine], for which the concentration for a half-maximal effect (EC50) is more than 10 µM.
The same measure for `COc1ccc(F)cc1C1CCN(c2nc(C3CC3)nc3cc(Cl)c(N(C)CCO)cc23)CC1` [Example 113, 2-({7-chloro-2-cyclopropyl-4-[4-(5-fluoro-2-methoxy-phenyl)-piperidin-1-yl]-quinazolin-6-yl}-methyl-amino)-ethanol]: 2 to 10 µM.
As for `COc1ccccc1C1CCN(c2nc(C3(F)CCCC3)nc3ccc(N(C)CCO)cc23)CC1` [Example 72, 2-({2-(1-fluoro-cyclopentyl)-4-[4-(2-methoxy-phenyl)-piperidin-1-yl]-quinazolin-6-yl}-methyl-amino)-ethanol], the figure is 0.5 to 2 µM; as for `CCOC(=O)CN(C)c1ccc2nc(C3CC3)nc(N3CCC(c4ccccc4OC)CC3)c2c1` [Example 90, ({2-cyclopropyl-4-[4-(2-methoxy-phenyl)-piperidin-1-yl]-quinazolin-6-yl}-methyl-amino)-acetic acid ethyl ester], more than 10 µM.
The same measure for `COc1ccccc1C1CCN(c2nc(C3CC3)nc3ccc(N4CC[C@@H](N(C)C)C4)cc23)CC1` (stereo in doubt) [Example 91, (1-{2-cyclopropyl-4-[4-(2-methoxy-phenyl)-piperidin-1-yl]-quinazolin-6-yl}-pyrrolidin-3-yl)-dimethyl-amine]: 2 to 10 µM; for `COc1ccccc1C1CCN(c2nc(C3CC3)nc3ccc(N(C)CCO)c(F)c23)CC1` [Example 167, 2-({2-Cyclopropyl-5-fluoro-4-[4-(2-methoxy-phenyl)-piperidin-1-yl]-quinazolin-6-yl}-methyl-amino)-ethanol]: 0.5 to 2 µM.
On to `COc1nccnc1C1CCN(c2nc(C3(C)CC3)nc3ccc(N(C)CCO)cc23)CC1` [Example 205, 2-{[4-[4-(3-Methoxy-pyrazin-2-yl)-piperidin-1-yl]-2-(1-methyl-cyclopropyl)-quinazolin-6-yl]-methyl-amino}-ethanol], for which the EC50 fell in the range of 0.5 to 2 µM.
